Reference: ChEMBL document CHEMBL1156363, “Cytotoxic cyclic norterpene peroxides from a Red Sea sponge Diacarnus erythraenus” (J Nat Prod, 2001)

How the values were obtained:
Assay type in all cases: functional, cell-based
P388 = test: Cytotoxicity against mouse P388 cells
A549 = test: Cytotoxicity against human A549 cells
HT-29 = test: Cytotoxicity against human HT-29 cells

Measured: IC50

COC(=O)[C@@H](C)[C@@H]1CC[C@](C)(CCC(=O)C(C)(C)CCCC(C)=O)OO1 [DIACARPEROXIDE B]
> 1 µg/mL: P388 | A549 | HT-29

C=C1CCCC(C)(C)C1(O)CC[C@@]1(C)CC[C@@H]([C@H](C)C(=O)OC)OO1 (stereo not given in full) [AIKUPIKOXIDE B]
> 1 µg/mL: P388 | A549 | HT-29

C=C(CCCC(C)(C)O)C(=O)CC[C@@]1(C)CC[C@@H]([C@H](C)C(=O)OC)OO1 [AIKUPIKOXIDE D]
> 1 µg/mL: P388 | A549 | HT-29

CO[C@@]1(C)CCC(C(C)C)=C[C@@H]2[C@H]1CC[C@]2(C)O
> 1 µg/mL: P388 | A549 | HT-29

CC(=O)CCCC(C)(C)C(=O)CC/C(C)=C/CC[C@@]1(C)CC[C@H]([C@H](C)C(=O)O)OO1 [AIKUPIKOXIDE A]
> 1 µg/mL: P388 | A549 | HT-29
